# From PubChem BioAssay AID1963450 (Molecular Pharmacology Branch, DTP, NCI, 2024)
# pIC50: −log10 of the molar value. Several values for one entry are separate records, joined by “and”; a condition that tells them apart may be missing. Equal values may be shown once.
# System: 556581-035-R-J1-PDC complex spheroid growth
# Assay: Anticancer human tumor 556581-035-R-J1-PDC patient-derived ovarian carcinoma cell line growth inhibition [Asc]
# Details: for viability, T/C: stronger effect = lower value
# Description: Multicellular complex tumor spheroid response to apoptosis pathway targeting inhibitors Alrizomadlin, Pelcitoclax, and Dasminapant in combination with a variety of drugs and investigational agents in selected tumor cell lines
# The MDM2 inhibitor alrizomadlin, the Bcl-2/Bcl-xL inhibitor pelcitoclax, and the IAPs inhibitor dasminapant were evaluated both individually and in combination with standard of care and investigational anticancer small molecules within a complex spheroid model of solid tumors. . Complex spheroids include a stromal component modeled by human endothelial cells (HUVEC) and fibroblasts modeled by human mesenchymal stem cells (MSCs). The concentration ranges selected for each drug and investigational agent were based upon clinically achievable concentrations if the clinical Cmax of the agent was known.
# Compounds. The drugs and investigational agents: alrizomadlin (APG-115; NSC831270), pelcitoclax (APG-1252; NSC835773), dasminapant (APG-1387;NSC834197), TAK-243 (NSC785004), copanlisib (NSC809693), olaparib (NSC753686), talazoparib (NSC767125), cobimetinib (NSC 768068), eltanexor (KPT-8602, NSC 794443), abemaciclib (NSC 768073), sotorasib (NSC818433), adagrasib (NSC 831453), MRTX-1133 (NSC 836407), Iadademestat (ORY1001, NSC 806812), and RMC-4630 (NSC839698), were obtained from the NCI Developmental Therapeutics Program Chemical Repository. The FDA-approved anticancer drug set is available from the Developmental Therapeutics Program at https://dtp.cancer.gov/organization/dscb/obtaining/available plates.htm. […] The stock solutions were prepared in dimethyl sulfoxide (DMSO, Sigma-Aldrich, St. Louis, MO, cat. D2650) at 800-fold the tested concentration and stored at -70 degrees C prior to their use. All drugs and investigational agents were tested over a range starting from a high concentration at or near the clinical Cmax and decreasing in half-log increments. If the clinical Cmax for an agent had not been determined, the highest concentration tested was 10 microM.
# The patient-derived cancer (PDC) cell lines include five colon adenocarcinomas: 186277-243-T-J2-PDC, 616215-338-R-J1-PDC, 439559-082-T-J2-PDC, 463943-066-T-J2-PDC, and 519858-162-T-J1-PDC; three pancreatic carcinomas: 323965-272-R-J2-PDC, 521955-158-R6-J3-PDC, and 521955-158-R2-J5-PDC; two uterine sarcomas: 327498-152-R-J2-PDC and 993429-296-R-J1-PDC; two rhabdomyosarcomas: 755483-174-R-J1-PDC and 772245-204-R-J1-PDC; two soft tissue sarcomas: 126254-015-R-J1-PDC and 494315-158-R-J1-PDC; two malignant fibrous histiocytomas: 317291-083-R-J1-PDC and 596521-263-R-J1-PDC; two breast carcinomas: 171881-019-R-J1-PDC and 885512-296-R-J2-PDC; and one ovarian carcinoma: 6556581-035-R-J-PDC were obtained from the NCI PDMR, (https://pdmr.cancer.gov). The established cell lines HSSY-2 synovial sarcoma (RRID:CVCL 8719), SYO-1 synovial sarcoma (RRID:CVCL_7146), MPNST malignant peripheral neural sheath tumor were obtained from the Sloan Kettering Institute. The following established cell lines were purchased from the American Type Culture Collection (ATCC, Manassas, VA), Sor the received from the NCI repository:, PANC-1 pancreatic carcinoma (CRL-1469, RRID:CVCL_0480), OVCAR-5 ovarian carcinoma (RRID:CVCL_1628), OVCAR-8 ovarian carcinoma (RRID:CVCL_1629), , MCF-7 breast carcinoma (CRL-12584, RRID:CVCL_0031), MDA-MB-231 breast carcinoma (CRL-12532, RRID:CVCL_0062), NCI-H1876 small cell lung carcinoma (CRL-5902, RRID:CVCL_1503), NCI-H510A small cell lung carcinoma (HTB-184, RRID:CVCL_1565), NCI-H1417 (CRL-5869, RRID:CVCL_1469), and NCI-H196 small cell lung carcinoma (CRL-5823, RRID:CVCL_1509). Dr. Peter Houghton (Greehey Children's Cancer Research Institute, University of Texas Health Science Center, San Antonio, TX) provided Rh-18 rhabdomyosarcoma (RRID:CVCL_1659). Pooled donor human umbilical vein endothelial cells (HUVEC, Lonza, cat. CC-2519) and human mesenchymal stem cells (hMSC, Lonza, cat. PT-2501) were purchased from Lonza (Walkersville, MD).
# Cell Culture. […]
# [1] = curve of first compound, second compound 0.1 µM
# [2] = curve of first compound, second compound 0.316 µM
# [3] = curve of first compound, second compound 1 µM
# [4] = second compound 0.1 µM, first compound 0.0316 µM
# [5] = second compound 0.1 µM, first compound 0.1 µM
# [6] = second compound 0.1 µM, first compound 0.316 µM
# [7] = second compound 0.1 µM, first compound 1 µM
# [8] = second compound 0.1 µM, first compound 3.16 µM
# [9] = second compound 0.1 µM, first compound 10 µM
# [10] = second compound 0.316 µM, first compound 0.0316 µM
# [11] = second compound 0.316 µM, first compound 0.1 µM
# [12] = second compound 0.316 µM, first compound 0.316 µM
# [13] = second compound 0.316 µM, first compound 1 µM
# [14] = second compound 0.316 µM, first compound 3.16 µM
# [15] = second compound 0.316 µM, first compound 10 µM
# [16] = second compound 1 µM, first compound 0.0316 µM
# [17] = second compound 1 µM, first compound 0.1 µM
# [18] = second compound 1 µM, first compound 0.316 µM
# [19] = second compound 1 µM, first compound 1 µM
# [20] = second compound 1 µM, first compound 3.16 µM
# [21] = second compound 1 µM, first compound 10 µM
# 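Also: spheroids exposed to agents for 7 days before viability read.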
Structure (SMILES),pIC50 [1],pIC50 [2],pIC50 [3],"viability, T/C [4] [%]","viability, T/C [5] [%]","viability, T/C [6] [%]","viability, T/C [7] [%]","viability, T/C [8] [%]","viability, T/C [9] [%]","viability, T/C [10] [%]","viability, T/C [11] [%]","viability, T/C [12] [%]","viability, T/C [13] [%]","viability, T/C [14] [%]","viability, T/C [15] [%]","viability, T/C [16] [%]","viability, T/C [17] [%]","viability, T/C [18] [%]","viability, T/C [19] [%]","viability, T/C [20] [%]",further results
C=C(F)C(=O)N1CCN(c2nc(OCC3CCCN3C)nc3c2CCN(c2cccc4cccc(Cl)c24)C3)CC1CC#N (configuration not stated) + CNC(C)C(=O)NC1CN(S(=O)(=O)c2cccc(S(=O)(=O)N3CCC4CCC(C(=O)NC(c5ccccc5)c5ccccc5)N4C(=O)C(NC(=O)C(C)NC)C3)c2)CCC2CCC(C(=O)NC(c3ccccc3)c3ccccc3)N2C1=O,5.82,5.97,5.96,66.5,77.1,79.5,58.4,29.5,0.17,78.7,75.1,63.7,56,20,1.79,66.5,62.7,62.3,52.3,24.4,"pIC50 (curve of first compound, second compound 0.01 µM): 5.58; pIC50 (curve of first compound, second compound 0.0316 µM): 5.73; viability, T/C (second compound 0.01 µM, first compound 0.0316 µM): 85.3%; viability, T/C (second compound 0.01 µM, first compound 0.1 µM): 85%; viability, T/C (second compound 0.01 µM, first compound 0.316 µM): 83%; viability, T/C (second compound 0.01 µM, first compound 1 µM): 86.6%; viability, T/C (second compound 0.01 µM, first compound 3.16 µM): 43.2%; viability, T/C (second compound 0.01 µM, first compound 10 µM): 0.21%; viability, T/C (second compound 0.0316 µM, first compound 0.0316 µM): 83.9%; viability, T/C (second compound 0.0316 µM, first compound 0.1 µM): 86.8%; viability, T/C (second compound 0.0316 µM, first compound 0.316 µM): 86.5%; viability, T/C (second compound 0.0316 µM, first compound 1 µM): 72%; viability, T/C (second compound 0.0316 µM, first compound 3.16 µM): 31.6%; viability, T/C (second compound 0.0316 µM, first compound 10 µM): 0.18%; viability, T/C [21]: 2.63%"
C#Cc1c(F)ccc2cc(O)cc(-c3ncc4c(N5CC6CCC(C5)N6)nc(OCC56CCCN5CC(F)C6)nc4c3F)c12 (configuration not stated),,,,,,,,,,,,,,,,,,,,,"viability, T/C (compound 0.0316 µM): 101% and 92.2% and 88%; viability, T/C (compound 0.1 µM): 105% and 102% and 87.2%; viability, T/C (compound 0.316 µM): 94.2% and 81% and 90.1%; viability, T/C (compound 1 µM): 102% and 80.5% and 75.8%; viability, T/C (compound 3.16 µM): 97.2% and 89.5% and 113%; viability, T/C (compound 10 µM): 91.1% and 85.6% and 83.9%; pIC50 (curve of compound): < 5.00"
C=C(F)C(=O)N1CCN(c2nc(OCC3CCCN3C)nc3c2CCN(c2cccc4cccc(Cl)c24)C3)CC1CC#N (configuration not stated) + Cc1c(S(C)(=O)=O)c(-c2cc(F)cc(N3CCN(c4ccc(NS(=O)(=O)c5ccc(NC(CCN6CCC(C(=O)OCCCP(=O)(O)O)CC6)CSc6ccccc6)c(S(=O)(=O)C(F)(F)F)c5)cc4)CC3)c2)c(-c2ccc(Cl)cc2)n1C(C)C,5.68,5.81,5.90,80.6,87.7,79.1,76.9,35.4,30.3,69.3,86.7,87.8,68.6,18.2,0.26,73.7,71.8,64.9,56.8,23.5,"pIC50 (curve of first compound, second compound 3.16 µM): 6.00; pIC50 (curve of first compound, second compound 10 µM): 6.00; viability, T/C [21]: 25.7%; viability, T/C (second compound 3.16 µM, first compound 0.0316 µM): 63.1%; viability, T/C (second compound 3.16 µM, first compound 0.1 µM): 61.5%; viability, T/C (second compound 3.16 µM, first compound 0.316 µM): 67.7%; viability, T/C (second compound 3.16 µM, first compound 1 µM): 50.3%; viability, T/C (second compound 3.16 µM, first compound 3.16 µM): 22.1%; viability, T/C (second compound 3.16 µM, first compound 10 µM): 27%; viability, T/C (second compound 10 µM, first compound 0.0316 µM): 59.6%; viability, T/C (second compound 10 µM, first compound 0.1 µM): 54.5%; viability, T/C (second compound 10 µM, first compound 0.316 µM): 57.8%; viability, T/C (second compound 10 µM, first compound 1 µM): 50.4%; viability, T/C (second compound 10 µM, first compound 3.16 µM): 8.45%; viability, T/C (second compound 10 µM, first compound 10 µM): 0.49%"
